Experimental data published in patent US12522595B2, “Bicyclic ether O-glycoprotein-2-acetamido-2-deoxy-3-D-glucopyranosidase inhibitors” (BIOGEN MA INC., priority 2019, dated 2026).

Target: T1, Recombinant full length human OGA enzyme (Homo sapiens, UniProt O60502)
T1 construct: Recombinant full length human OGA enzyme was purchased from Origene; purchased Origene
T1 sequence (O60502 1-916): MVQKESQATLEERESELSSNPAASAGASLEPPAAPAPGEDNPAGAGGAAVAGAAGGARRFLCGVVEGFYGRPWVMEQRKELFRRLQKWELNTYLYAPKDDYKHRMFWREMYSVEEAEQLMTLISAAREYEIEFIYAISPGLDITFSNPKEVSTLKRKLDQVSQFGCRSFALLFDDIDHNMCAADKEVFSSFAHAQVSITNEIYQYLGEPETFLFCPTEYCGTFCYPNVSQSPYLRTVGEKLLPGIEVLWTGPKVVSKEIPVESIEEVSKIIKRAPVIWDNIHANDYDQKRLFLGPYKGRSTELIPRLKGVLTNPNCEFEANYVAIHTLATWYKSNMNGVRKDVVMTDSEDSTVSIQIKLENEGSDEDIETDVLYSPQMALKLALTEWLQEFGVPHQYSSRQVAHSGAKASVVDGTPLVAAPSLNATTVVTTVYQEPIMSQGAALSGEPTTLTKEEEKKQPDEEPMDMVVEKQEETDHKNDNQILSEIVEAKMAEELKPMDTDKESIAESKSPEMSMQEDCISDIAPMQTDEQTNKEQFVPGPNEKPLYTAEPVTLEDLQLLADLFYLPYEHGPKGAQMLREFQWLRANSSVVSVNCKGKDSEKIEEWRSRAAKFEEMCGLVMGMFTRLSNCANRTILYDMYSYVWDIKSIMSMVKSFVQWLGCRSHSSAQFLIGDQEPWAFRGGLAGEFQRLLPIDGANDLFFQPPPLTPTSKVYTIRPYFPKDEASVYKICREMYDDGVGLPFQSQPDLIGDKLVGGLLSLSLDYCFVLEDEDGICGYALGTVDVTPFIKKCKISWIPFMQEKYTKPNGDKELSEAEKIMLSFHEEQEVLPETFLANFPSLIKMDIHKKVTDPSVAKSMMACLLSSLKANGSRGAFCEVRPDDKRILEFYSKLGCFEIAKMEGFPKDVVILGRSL
Assay: OGA enzyme inhibition biochemical assay
Settings: 1 nM OGA, 100 μM 4-MUGlcNAc (Km), pH 6.4, 90 minutes at room temperature, 10-point dose-response from 20 μM
Summary of the method: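 1 nM OGA with 100 μM 4-MUGlcNAc (Km) in McIlvaine buffer pH 6.4, 0.01% BSA, 90 min at room temperature; quenched with 3M glycine pH 10, fluorescence Ex 355/Em 460 nm. 10-point, 4-fold dilutions from 20 μM; 4-parameter variable-slope fit.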

Row | IC50 [nM] | SMILES
1 | < 1 | CC(=O)Nc1nc(F)c(CN2C[C@H](Oc3ccc4ncoc4c3)C[C@@H]2C)s1 [Example 76, N-(5-(((2S,4R)-4-(benzo[d]oxazol-6-yloxy)-2-methylpyrrolidin-1-yl)methyl)-4-fluorothiazol-2-yl)acetamide]
2 | < 1 | CC(=O)Nc1nc(F)c(CN2C[C@H](Oc3ccc4ccccc4n3)C[C@@H]2C)s1 [Example 78, N-(4-fluoro-5-(((2S,4R)-2-methyl-4-(quinolin-2-yloxy)pyrrolidin-1-yl)methyl)thiazol-2-yl)acetamide]
3 | < 1 | COc1ccc2ccc(O[C@@H]3C[C@H](C)N(Cc4cnc(NC(C)=O)s4)C3)nc2c1 [Example 79, N-(5-(((2S,4R)-4-((7-methoxyquinolin-2-yl)oxy)-2-methylpyrrolidin-1-yl)methyl)thiazol-2-yl)acetamide]
4 | < 1 | COc1ccc2ccc(O[C@@H]3C[C@H](C)N(Cc4sc(NC(C)=O)nc4F)C3)nc2c1 [Example 80, N-(4-fluoro-5-(((2S,4R)-4-((7-methoxyquinolin-2-yl)oxy)-2-methylpyrrolidin-1-yl)methyl)thiazol-2-yl)acetamide]
5 | < 1 | CC(=O)Nc1ncc(CN2C[C@H](Oc3ccc4cccnc4n3)C[C@@H]2C)s1 [Example 81, N-(5-(((2S,4R)-4-((1,8-naphthyridin-2-yl)oxy)-2-methylpyrrolidin-1-yl)methyl)thiazol-2-yl)acetamide]
6 | < 1 | CC(=O)Nc1nc(F)c(CN2C[C@H](Oc3ccc4cccnc4n3)C[C@@H]2C)s1 [Example 82, N-(5-(((2S,4R)-4-((1,8-naphthyridin-2-yl)oxy)-2-methylpyrrolidin-1-yl)methyl)-4-fluorothiazol-2-yl)acetamide]
7 | 1.1 | CC(=O)Nc1ncc(CN2C[C@H](Oc3cccc4nn(C)cc34)C[C@@H]2C)s1 [Example 83, N-(5-(((2S,4R)-2-methyl-4-((2-methyl-2H-indazol-4-yl)oxy)pyrrolidin-1-yl)methyl)thiazol-2-yl)acetamide]
8 | < 1 | CC(=O)Nc1nc(F)c(CN2C[C@H](Oc3cccc4nn(C)cc34)C[C@@H]2C)s1 [Example 84, N-(4-fluoro-5-(((2S,4R)-2-methyl-4-((2-methyl-2H-indazol-4-yl)oxy)pyrrolidin-1-yl)methyl)thiazol-2-yl)acetamide]
9 | < 1 | CC(=O)Nc1ncc(CN2C[C@H](Oc3ccnc4nn(C)cc34)C[C@@H]2C)s1 [Example 85, N-(5-(((2S,4R)-2-methyl-4-((2-methyl-2H-pyrazolo[3,4-b]pyridin-4-yl)oxy)pyrrolidin-1-yl)methyl)thiazol-2-yl)acetamide]
10 | < 1 | CC(=O)Nc1ncc(CN2C[C@H](Oc3cc4cn(C)nc4cn3)C[C@@H]2C)s1 [Example 87, N-(5-(((2S,4R)-2-methyl-4-((2-methyl-2H-pyrazolo[3,4-c]pyridin-5-yl)oxy)pyrrolidin-1-yl)methyl)thiazol-2-yl)acetamide]
11 | < 1 | CC(=O)Nc1ncc(CN2C[C@H](Oc3cc4cnn(C)c4cn3)C[C@@H]2C)s1 [Example 88, N-(5-(((2S,4R)-2-methyl-4-((1-methyl-1H-pyrazolo[3,4-c]pyridin-5-yl)oxy)pyrrolidin-1-yl)methyl)thiazol-2-yl)acetamide]
12 | < 1 | CC(=O)Nc1nc(F)c(CN2C[C@H](Oc3cc4cn(C)nc4cn3)C[C@@H]2C)s1 [Example 89, N-(4-fluoro-5-(((2S,4R)-2-methyl-4-((2-methyl-2H-pyrazolo[3,4-c]pyridin-5-yl)oxy)pyrrolidin-1-yl)methyl)thiazol-2-yl)acetamide]
13 | < 1 | CC(=O)Nc1nc(F)c(CN2C[C@H](Oc3cc4cnn(C)c4cn3)C[C@@H]2C)s1 [Example 90, N-(4-fluoro-5-(((2S,4R)-2-methyl-4-((1-methyl-1H-pyrazolo[3,4-c]pyridin-5-yl)oxy)pyrrolidin-1-yl)methyl)thiazol-2-yl)acetamide]
14 | 5 | CC(=O)Nc1ncc(CN2C[C@H](Oc3nc4cccnc4n3C)C[C@@H]2C)s1 [Example 91, N-(5-(((2S,4R)-2-methyl-4-((3-methyl-3H-imidazo[4,5-b]pyridin-2-yl)oxy)pyrrolidin-1-yl)methyl)thiazol-2-yl)acetamide]
15 | < 1 | CC(=O)Nc1nc(F)c(CN2C[C@H](Oc3cn4cccnc4n3)C[C@@H]2C)s1 [Example 92, N-(4-fluoro-5-(((2S,4R)-4-(imidazo[1,2-a]pyrimidin-2-yloxy)-2-methylpyrrolidin-1-yl)methyl)thiazol-2-yl)acetamide]
16 | < 1 | CC(=O)Nc1nc(F)c(CN2C[C@H](Oc3ncnc4ccoc34)C[C@@H]2C)s1 [Example 94, N-(4-fluoro-5-(((2S,4R)-4-(furo[3,2-d]pyrimidin-4-yloxy)-2-methylpyrrolidin-1-yl)methyl)thiazol-2-yl)acetamide]
17 | 5.3 | CC(=O)Nc1ncc(CN2C[C@H](Oc3nccn4ccnc34)C[C@@H]2C)s1 [Example 95, N-(5-(((2S,4R)-4-(imidazo[1,2-a]pyrazin-8-yloxy)-2-methylpyrrolidin-1-yl)methyl)thiazol-2-yl)acetamide]
18 | < 1 | CC(=O)Nc1nc(F)c(CN2C[C@H](Oc3nccn4ccnc34)C[C@@H]2C)s1 [Example 96, N-(4-fluoro-5-(((2S,4R)-4-(imidazo[1,2-a]pyrazin-8-yloxy)-2-methylpyrrolidin-1-yl)methyl)thiazol-2-yl)acetamide]
19 | < 1 | CC(=O)Nc1ncc(CN2C[C@H](Oc3nccc4nccn34)C[C@@H]2C)s1 [Example 97, N-(5-(((2S,4R)-4-(imidazo[1,2-c]pyrimidin-5-yloxy)-2-methylpyrrolidin-1-yl)methyl)thiazol-2-yl)acetamide]
20 | < 1 | CC(=O)Nc1nc(F)c(CN2C[C@H](Oc3nccc4nccn34)C[C@@H]2C)s1 [Example 98, N-(4-fluoro-5-(((2S,4R)-4-(imidazo[1,2-c]pyrimidin-5-yloxy)-2-methylpyrrolidin-1-yl)methyl)thiazol-2-yl)acetamide]
21 | < 1 | CC(=O)Nc1ncc(CN2C[C@H](Oc3cncc4nccn34)C[C@@H]2C)s1 [Example 99, N-(5-(((2S,4R)-4-(imidazo[1,2-a]pyrazin-5-yloxy)-2-methylpyrrolidin-1-yl)methyl)thiazol-2-yl)acetamide]
22 | < 1 | CC(=O)Nc1nc(F)c(CN2C[C@H](Oc3cncc4nccn34)C[C@@H]2C)s1 [Example 100, N-(4-fluoro-5-(((2S,4R)-4-(imidazo[1,2-a]pyrazin-5-yloxy)-2-methylpyrrolidin-1-yl)methyl)thiazol-2-yl)acetamide]
23 | < 1 | CC(=O)Nc1nc(F)c(CN2C[C@H](Oc3nccn4cnnc34)C[C@@H]2C)s1 [Example 101, N-(5-(((2S,4R)-4-([1,2,4]triazolo[4,3-a]pyrazin-8-yloxy)-2-methylpyrrolidin-1-yl)methyl)-4-fluorothiazol-2-yl)acetamide]
24 | < 1 | CC(=O)Nc1nc(F)c(CN2C[C@H](Oc3cccc4ncnn34)C[C@@H]2C)s1 [Example 102, N-(5-(((2S,4R)-4-([1,2,4]triazolo[1,5-a]pyridin-5-yloxy)-2-methylpyrrolidin-1-yl)methyl)-4-fluorothiazol-2-yl)acetamide]
25 | < 1 | CC(=O)Nc1nc(F)c(CN2C[C@H](Oc3nccn4cc(C)nc34)C[C@@H]2C)s1 [Example 103, N-(4-fluoro-5-(((2S,4R)-2-methyl-4-((2-methylimidazo[1,2-a]pyrazin-8-yl)oxy)pyrrolidin-1-yl)methyl)thiazol-2-yl)acetamide]
26 | 3.8 | CC(=O)Nc1nc(F)c(CN2C[C@H](Oc3ccnc4ccnn34)C[C@@H]2C)s1 [Example 104, N-(4-fluoro-5-(((2S,4R)-2-methyl-4-(pyrazolo[1,5-a]pyrimidin-7-yloxy)pyrrolidin-1-yl)methyl)thiazol-2-yl)acetamide]
27 | < 1 | CC(=O)Nc1nc(F)c(CN2C[C@H](Oc3ccc4ncnn4c3C)C[C@@H]2C)s1 [Example 105, N-(4-fluoro-5-(((2S,4R)-2-methyl-4-((5-methyl-[1,2,4]triazolo[1,5-a]pyridin-6-yl)oxy)pyrrolidin-1-yl)methyl)thiazol-2-yl)acetamide]
28 | < 1 | CC(=O)Nc1nc(F)c(CN2C[C@H](Oc3ncnn4cccc34)C[C@@H]2C)s1 [Example 106, N-(4-fluoro-5-(((2S,4R)-2-methyl-4-(pyrrolo[2,1-f][1,2,4]triazin-4-yloxy)pyrrolidin-1-yl)methyl)thiazol-2-yl)acetamide]
